We go through 19 compounds from ChEMBL document CHEMBL1127260, “EMD 61 753 as a favourable representative of structurally novel arylacetamido-type K opiate receptor agonists” (Bioorg Med Chem Lett, 1994).

Assay [1] has as its target Delta-type opioid receptor (Rattus norvegicus, UniProt P33533). The assay can be described thus: Affinity to delta opioid receptor determined in the presence of [3H]- [D-Pen2,5]enkephalin using membranes prepared from rat cerebrum.
The target in another assay is Mu-type opioid receptor (Rattus norvegicus, UniProt P33535). Briefly: Affinity to mu opioid receptor determined in the presence of [3H]- PL 017 using membranes prepared from rat cerebrum.
Mu-type opioid receptor, sequence (P33535 whole entry): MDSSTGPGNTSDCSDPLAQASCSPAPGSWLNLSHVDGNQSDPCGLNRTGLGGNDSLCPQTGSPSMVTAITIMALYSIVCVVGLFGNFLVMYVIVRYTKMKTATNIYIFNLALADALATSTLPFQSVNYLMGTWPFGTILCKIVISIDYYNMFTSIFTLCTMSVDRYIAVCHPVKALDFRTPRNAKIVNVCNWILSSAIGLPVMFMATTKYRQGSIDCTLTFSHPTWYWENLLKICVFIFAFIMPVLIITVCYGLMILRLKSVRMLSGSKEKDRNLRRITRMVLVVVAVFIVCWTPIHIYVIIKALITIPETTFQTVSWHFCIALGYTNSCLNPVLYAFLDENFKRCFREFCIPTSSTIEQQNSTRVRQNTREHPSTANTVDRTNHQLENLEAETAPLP
In assay [2] the target is Kappa-type opioid receptor (Cavia porcellus, UniProt P41144). The assay can be described thus: Affinity at K opioid receptor on membranes prepared from guinea pig cerebellum by [3H]- 69593 displacement. Format: tissue-based.
Kappa-type opioid receptor, sequence (P41144 whole entry): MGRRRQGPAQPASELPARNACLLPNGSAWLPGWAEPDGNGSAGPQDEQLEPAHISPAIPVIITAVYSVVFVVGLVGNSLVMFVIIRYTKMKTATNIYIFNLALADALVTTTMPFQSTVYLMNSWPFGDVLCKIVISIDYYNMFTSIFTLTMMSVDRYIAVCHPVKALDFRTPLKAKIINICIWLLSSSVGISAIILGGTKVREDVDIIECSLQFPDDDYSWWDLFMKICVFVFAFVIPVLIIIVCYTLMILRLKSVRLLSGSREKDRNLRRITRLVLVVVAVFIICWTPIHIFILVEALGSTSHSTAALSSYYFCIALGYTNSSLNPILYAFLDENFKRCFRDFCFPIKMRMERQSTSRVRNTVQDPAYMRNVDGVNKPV
The test system of assay [3] is Mus musculus. The assay can be described thus: Inhibitory dose (sc) in the formalin test in mice at late phase. Format: functional. Particulars: read-out: ID50 (the source's name).
For assay [4], the system named is Mus musculus. The assay can be described thus: Inhibitory dose (sc) in the formalin test in mice at early phase. The assay is classed as functional. The conditions noted are these: read-out: ID50 (the source's name).

Delta-type opioid receptor, sequence (P33533 whole entry): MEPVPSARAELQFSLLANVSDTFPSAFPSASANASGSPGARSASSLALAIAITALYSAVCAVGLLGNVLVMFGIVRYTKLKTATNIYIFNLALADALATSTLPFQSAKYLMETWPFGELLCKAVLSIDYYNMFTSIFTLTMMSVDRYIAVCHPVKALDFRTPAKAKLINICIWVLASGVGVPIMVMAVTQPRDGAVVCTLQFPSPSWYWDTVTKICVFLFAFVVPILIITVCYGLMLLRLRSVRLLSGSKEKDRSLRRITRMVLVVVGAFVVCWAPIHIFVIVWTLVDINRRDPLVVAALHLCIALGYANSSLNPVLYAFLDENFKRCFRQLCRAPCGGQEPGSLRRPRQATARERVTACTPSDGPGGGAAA

Regarding `CN(C(=O)C1c2ccccc2Oc2ccccc21)[C@H](CN1CC[C@H](O)C1)c1ccccc1`, the results for the Ki (in assay [1]; at Mu-type opioid receptor; in assay [2] (read-out: Ki)) were more than 100 nM, more than 100 nM and 4 nM, respectively.
Take `Cc1ccc(C(C(=O)N(C)[C@H](CN2CC[C@H](O)C2)c2ccccc2)c2ccc(C)cc2)cc1.Cl`: the Ki in assay [1] was more than 100 nM; at Mu-type opioid receptor it was more than 100 nM; in assay [2], 20 nM l-1.
For the compound `CN(C(=O)C1c2ccccc2-c2ccccc21)[C@H](CN1CC[C@H](O)C1)c1ccccc1`, the Ki in assay [1] stood at 60 nM; at Mu-type opioid receptor, 40 nM; in assay [2] (read-out: Ki), 6 nM.
As to `CN1CC[C@]23c4c5ccc(O)c4O[C@H]2[C@@H](O)C=C[C@H]3[C@H]1C5` [MORPHINE], the values for the ED50 in the assay with Mus musculus [3] and with Mus musculus [4] were 3.4 mg/kg and 1.7 mg/kg, respectively.
On to `CN(C(=O)C(c1ccc(F)cc1)c1ccc(F)cc1)[C@H](CN1CC[C@H](O)C1)c1ccccc1`, for which the Ki is more than 100 nM in assay [1], more than 100 nM on Mu-type opioid receptor and 7 nM in assay [2] (read-out: Ki).
`CC(=O)Nc1cccc([C@@H](CN2CC[C@H](O)C2)N(C)C(=O)C(c2ccccc2)c2ccccc2)c1`: the Ki in assay [2] (read-out: Ki) was determined as 6 nM.
Same read-out and setting: the same measure for `COc1ccc([C@@H](CN2CC[C@H](O)C2)N(C)C(=O)C(c2ccccc2)c2ccccc2)cc1`: 7 nM.
With `CN(C(=O)C(c1ccccc1)c1ccccc1)[C@H](CN1CC[C@H](O)C1)c1cccc([N+](=O)[O-])c1.Cl`, in assay [2], the Ki was determined as 20 nM l-1.
On to `CN(C(=O)C(c1ccccc1)c1ccccc1)[C@H](CN1CC[C@H](O)C1)c1ccc(O)cc1`, for which, in assay [2] (read-out: Ki), the Ki was determined as 6 nM.
As for `CC(C)[C@@H](CN1CCCC1)N(C)C(=O)Cc1ccc(Cl)c(Cl)c1`, the results for the ED50 in the assay with Mus musculus [3] and with Mus musculus [4] were 0.02 mg/kg and 0.04 mg/kg, respectively.
Regarding `CN(C(=O)C(c1ccc(Cl)cc1)c1ccc(Cl)cc1)[C@H](CN1CC[C@H](O)C1)c1ccccc1`, the Ki in assay [1] is more than 100 nM; at Mu-type opioid receptor, more than 100 nM; in assay [2] (read-out: Ki) it was 5 nM.
Take `CN(C(=O)C(c1ccccc1)C1CCCCC1)[C@H](CN1CC[C@H](O)C1)c1ccccc1` (stereo in doubt; form 1): the Ki in assay [1] is more than 100 nM; on Mu-type opioid receptor, more than 100 nM; in assay [2] (read-out: Ki), 10 nM.
Consider `CN(C(=O)C(c1ccccc1)c1ccccc1)[C@H](CN1CC[C@H](O)C1)c1cccc(N)c1`, for which the Ki in assay [2] (read-out: Ki) was found to be 6 nM.
As for `CN(C(=O)C1c2ccccc2Sc2ccccc21)[C@H](CN1CC[C@H](O)C1)c1ccccc1`, the Ki in assay [1] was more than 100 nM; at Mu-type opioid receptor, more than 100 nM; in assay [2] (read-out: Ki) it was 10 nM.
Turning to `CN(C(=O)C(c1ccccc1)C1CCCCC1)[C@H](CN1CC[C@H](O)C1)c1ccccc1` (stereo in doubt; form 2), the Ki was more than 100 nM in assay [1], more than 100 nM on Mu-type opioid receptor and 10 nM in assay [2] (read-out: Ki).
`CN(C(=O)C1c2ccccc2Cc2ccccc21)[C@H](CN1CC[C@H](O)C1)c1ccccc1`: the Ki in assay [1] was more than 100 nM; at Mu-type opioid receptor, more than 100 nM; in assay [2] (read-out: Ki) it was 4 nM.
For `CN(C(=O)C(c1ccccc1)c1ccccc1)[C@H](CN1CC[C@H](O)C1)c1ccccc1.Cl` [ASIMADOLINE HYDROCHLORIDE], the Ki (in assay [1]; on Mu-type opioid receptor) was more than 100 nM in each case. Also, the figures for the ED50 in the assay on Mus musculus [3] and with Mus musculus [4] were 0.24 mg/kg and more than 2 mg/kg, respectively.
`CN(C(=O)C1c2ccccc2CCc2ccccc21)[C@H](CN1CC[C@H](O)C1)c1ccccc1.Cl`: the results for the Ki (in assay [1]; at Mu-type opioid receptor; in assay [2]) were more than 100 nM, more than 100 nM and 20 nM l-1, respectively.
Regarding `CN(C(=O)C(c1cccs1)c1cccs1)[C@H](CN1CC[C@H](O)C1)c1ccccc1`, the Ki in assay [1] is more than 100 nM; on Mu-type opioid receptor it was more than 100 nM; in assay [2] (read-out: Ki) it was 4 nM.
